# Data reported in patent publication US20070243132A1, “Transdermal delivery of pharmaceutical agents” (priority 2005, published 2007).
# Counter-ions that a name gives are not always drawn.
# Tests used:
# B16 melanoma line = assay: Topical treatment of B16 melanoma in mice; conditions: microemulsion 10 mg/ml, 20 microlitre, 2 times per day, after 4 days
# [1] = tested on: Carrageenan-induced inflammation in the rear right footpad; assay: Carrageenan-induced footpad inflammation, foot thickness; assay type: in vivo, mice; conditions: for reduction of inflammation (foot thickness): microemulsion 10 mg/ml VB12 analog, 20 microL on shaved belly, 14 days; for reduction of inflammation (foot thickness) vs untreated animals: microemulsion 10 mg/ml, topical on shaved belly, FIG. 8
# [2] = microemulsions compared to a hydrogel; cited from earlier work
# [3] = Distribution of 125I-labeled proteins after transdermal application in a microemulsion; conditions: conscious Balb/C mice; for counts in the organs of the intestine: presumed due to grooming
# [4] = Weight loss microemulsion in overweight Swiss mice; assay type: in vivo; conditions: topical microemulsion 1 mg/ml daily
# Procedure: A microemulsion for topical weight loss was prepared according to the methods described in Examples 1 and 7, and included insulin, or insulin-like growth factor 1 (IGF1) or GHRP-6 at a final concentration of 1 mg/ml. A standardised volume of microemulsion was applied daily (TD) to an area of shaved skin on the belly of conscious Swiss strain mice. A standardised volume of each of insulin, or insulin-like growth factor 1 (IGF1) or GHRP-6 at a final concentration of 1 mg/ml in saline was injected sub cutaneously (SC) into the belly region of Swiss strain mice. Animal weights were measured 3 times per week. Following 2 weeks of treatment the mice were euthanased and their tissues removed and weighed. The weight of the animals with time is plotted in FIG. 11. It can be seen that there was a decrease in body weight of animals treated with the topical insulin of up to 15% within 2 weeks (FIG. 11).
compound,measurement,setting,value
O=c1[nH]cc(F)c(=O)[nH]1 [5-fluorouracil],growth rate of the tumour,B16 melanoma line,reduction in growth rate of the tumour
N.N.O=C([O-])C1(C(=O)[O-])CCC1.[Pt+2] [Carboplatin],body weight of the animals,B16 melanoma line,no reduction in body weight
same,growth rate of the tumour,B16 melanoma line,reduction in growth rate of the tumour
N.N.[Cl][Pt][Cl] [Cis-Platinum],body weight of the animals,B16 melanoma line,no reduction in body weight
same,growth rate of the tumour,B16 melanoma line,reduction in growth rate of the tumour
C/C1=C2/[N-][C@H]([C@H](CC(N)=O)[C@@]2(C)CCC(=O)NC[C@@H](C)OP(=O)([O-])O[C@H]2[C@@H](O)[C@@H](n3cnc4cc(C)c(C)cc43)O[C@@H]2CO)[C@]2(C)N=C(/C(C)=C3N=C(/C=C4N=C1[C@@H](CCC(N)=O)C\4(C)C)[C@@H](CCC(N)=O)[C@]\3(C)CC(N)=O)[C@@H](CCC(N)=O)[C@]2(C)CC(N)=O.[CH2-][C@H]1O[C@@H](n2cnc3c(N)ncnc32)[C@H](O)[C@@H]1O.[Co] [adenosyl-cobalamin],comparison of reduction in inflammation among the compositions,"[1]; C57/BI6 mice, VB12 analog microemulsions, FIG. 7",greatest reduction in inflammation
same,reduction of inflammation (foot thickness),"[1]; C57/BI6 mice, FIG. 7",active in reducing inflammation
same,reduction of inflammation (foot thickness) vs untreated animals,[1]; C57/BI6 mice,active in reducing inflammation
same,level of inflammation in the rear right foot-pad vs untreated animals,"[1]; C57/BI6 mice, microemulsions of Example 13, topical on shaved belly, FIG. 6",significantly lower level of inflammation
C/C1=C2/[N-][C@H]([C@H](CC(N)=O)[C@@]2(C)CCC(=O)NC[C@H](C)OP(=O)([O-])O[C@H]2[C@@H](O)[C@@H](n3cnc4cc(C)c(C)cc43)O[C@@H]2CO)[C@]2(C)N=C(/C(C)=C3N=C(/C=C4N=C1[C@@H](CCC(N)=O)C\4(C)C)[C@@H](CCC(N)=O)[C@]\3(C)CC(N)=O)[C@@H](CCC(N)=O)[C@]2(C)CC(N)=O.[Co+2] [cobalamin],reduction of inflammation (foot thickness),"[1]; C57/BI6 mice, FIG. 7",active in reducing inflammation
"C/C1=C2/[N-][C@H]([C@H](CC(N)=O)[C@@]2(C)CCC(=O)NC[C@@H](C)OP(=O)([O-])O[C@H]2[C@@H](O)[C@@H](n3cnc4cc(C)c(C)cc43)O[C@@H]2CO)[C@]2(C)N=C(/C(C)=C3N=C(/C=C4N=C1[C@@H](CCC(N)=O)C\4(C)C)[C@@H](CCC(N)=O)[C@]\3(C)CC(N)=O)[C@@H](CCC(N)=O)[C@]2(C)CC(N)=O.[Co+3].[OH-] [hydroxycobalamin, reference compound]",reduction of inflammation (foot thickness),"[1]; C57/BI6 mice, FIG. 7",active in reducing inflammation
CCCNC(C)C(=O)Nc1ccccc1C (stereo not shown) [prilocaine hydrochloride],increase of transdermal flux,[2],~10 times
EGF: 125I-labeled Epidermal Growth Factor in a microemulsion,"appearance of 125I in skin, muscle and shaved area","[3]; after 3 hours, FIG. 3","rapid appearance of ^125I in skin, muscle and the shaved area of the skin"
same,counts in the organs of the intestine,[3]; after 3 hours,"appearance of counts in the stomach, SI-1, SI-2, caecum and faeces"
H-Met-Gln-Glu-Asn-Ser-OH [MLIF-A],reduction of inflammation (foot thickness) vs untreated animals,[1]; C57/BI6 mice,active in reducing inflammation
H-Met-Gln-Ile-Asn-Ser-OH [MLIF-B],reduction of inflammation (foot thickness) vs untreated animals,[1]; C57/BI6 mice,active in reducing inflammation
H-Met-Gln-Met-Asn-Ser-OH [MLIF-C],reduction of inflammation (foot thickness) vs untreated animals,[1]; C57/BI6 mice,active in reducing inflammation
adalimumab,level of inflammation in the rear right foot-pad vs untreated animals,"[1]; microemulsion, TNFRII-Fc 5 mg/ml or adalimumab 4 mg/ml, topical, FIG. 9",significantly lower levels of inflammation
cyanocobalamin [reference compound],reduction of inflammation (foot thickness),"[1]; C57/BI6 mice, FIG. 7",active in reducing inflammation
insulin: insulin in a microemulsion (125I-labeled in Example 5; 1 mg/ml in Example 20),change of organ weights compared with other groups,"[4]; 2 weeks, FIG. 10",greatest change
same,muscle mass,"[4]; 2 weeks, FIG. 10",increased
same,weight of skin,"[4]; 2 weeks, FIG. 10",significantly reduced
same,decrease in body weight,"[4]; within 2 weeks, FIG. 11",up to 15%
same,"appearance of 125I in skin, muscle and shaved area","[3]; overnight, FIG. 4","rapid appearance of ^125I in skin, muscle and the shaved area of the skin"
same,counts in the organs of the intestine,[3]; overnight,"appearance of counts in the stomach, SI-1, SI-2, caecum and faeces"
